# Tests used:
# Wt-hMLKL = target: T1, Wt-hMLKL (Homo sapiens, UniProt Q8NB16); assay: SPR competition assay of NSA with Ox-APO; type: binding; conditions: 200 μM NSA, 750 μM Ox-APO
# T1 construct: purchased Abcam ab241453
# T1 sequence (Q8NB16 1-471): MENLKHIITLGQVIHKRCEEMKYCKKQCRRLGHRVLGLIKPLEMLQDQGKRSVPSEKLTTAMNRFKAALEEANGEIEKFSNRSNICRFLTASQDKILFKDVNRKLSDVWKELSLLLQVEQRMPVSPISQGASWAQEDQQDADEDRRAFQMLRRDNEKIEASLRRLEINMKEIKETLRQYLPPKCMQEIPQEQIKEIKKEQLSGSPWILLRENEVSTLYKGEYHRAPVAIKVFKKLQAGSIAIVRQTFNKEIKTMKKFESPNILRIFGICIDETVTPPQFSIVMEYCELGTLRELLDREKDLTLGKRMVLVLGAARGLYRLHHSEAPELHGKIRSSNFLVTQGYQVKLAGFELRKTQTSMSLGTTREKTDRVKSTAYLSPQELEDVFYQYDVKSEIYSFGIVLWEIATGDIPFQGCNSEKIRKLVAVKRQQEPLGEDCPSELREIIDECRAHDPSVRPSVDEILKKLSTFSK
# Protocol: Fig. S4 Competition assay of NSA with Ox-APO by SPR. Wt-hMLKL was immobilized on a CM5 chip and 750 μM Ox-APO was overflowed in the presence or absence of 200 μM NSA.
# mouse MLKL = test system: mouse MLKL; design: method as in PMID 28827318; conditions: cited from earlier work
smiles,measurement,setting,value
"COc1nccnc1NS(=O)(=O)c1ccc(NC(=O)/C=C/c2ccc([N+](=O)[O-])s2)cc1 [NSA, Necrosulfonamide]",competition for binding to hMLKL,Wt-hMLKL,competed with Ox-APO
same,activity against mouse MLKL,mouse MLKL,ineffective
